Each structure is given as a SMILES string.

This note sets out measurements from ChEMBL document CHEMBL4177570, “Pyrazole C-region analogues of 2-(3-fluoro-4-methylsulfonylaminophenyl)propanamides as potent TRPV1 antagonists” (Bioorg Med Chem Lett, 2017).

In one experiment the target is T1, Transient receptor potential cation channel subfamily V member 1 (Homo sapiens, UniProt Q8NER1). Description: Antagonist activity at pH 6 to 6.3 activated human TRPV1 expressed in CHO cells assessed as inhibition of intracellular calcium level preincubated with cells followed by receptor activation by Fluo-4 dye based FLIPR assay.
T1 sequence (Q8NER1 whole entry): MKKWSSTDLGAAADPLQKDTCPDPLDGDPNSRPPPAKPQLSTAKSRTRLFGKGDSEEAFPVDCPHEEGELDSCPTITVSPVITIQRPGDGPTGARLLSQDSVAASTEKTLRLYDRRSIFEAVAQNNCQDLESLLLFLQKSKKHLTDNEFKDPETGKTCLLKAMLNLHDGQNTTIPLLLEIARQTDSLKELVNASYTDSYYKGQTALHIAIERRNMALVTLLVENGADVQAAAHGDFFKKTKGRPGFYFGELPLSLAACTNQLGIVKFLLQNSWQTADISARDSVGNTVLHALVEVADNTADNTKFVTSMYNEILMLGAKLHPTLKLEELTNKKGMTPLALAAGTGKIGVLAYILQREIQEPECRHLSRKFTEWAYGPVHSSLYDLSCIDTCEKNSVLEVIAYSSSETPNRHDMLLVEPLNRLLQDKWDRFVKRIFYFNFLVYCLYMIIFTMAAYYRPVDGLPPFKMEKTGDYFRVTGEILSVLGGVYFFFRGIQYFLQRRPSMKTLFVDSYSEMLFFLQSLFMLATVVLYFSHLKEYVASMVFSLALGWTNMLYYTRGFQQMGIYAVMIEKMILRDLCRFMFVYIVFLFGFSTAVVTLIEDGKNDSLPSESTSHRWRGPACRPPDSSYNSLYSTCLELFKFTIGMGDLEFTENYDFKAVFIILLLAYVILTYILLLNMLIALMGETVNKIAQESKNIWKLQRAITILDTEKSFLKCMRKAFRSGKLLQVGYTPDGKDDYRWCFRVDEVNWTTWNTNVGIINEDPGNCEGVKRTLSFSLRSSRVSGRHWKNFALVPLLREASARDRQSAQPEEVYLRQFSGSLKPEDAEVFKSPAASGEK
Settings: not given; call rule not given here
The format is cell-based.
As for `C[C@H](C(=O)NCc1cc(C(C)(C)C)nn1-c1cccc(Cl)c1)c1ccc(NS(C)(=O)=O)c(F)c1`, the IC50 entry was “Not Active”.

A further experiment addresses T1, Transient receptor potential cation channel subfamily V member 1. As to the kind of experiment: Antagonist activity at human TRPV1 expressed in CHO cells assessed as inhibition of NADA-induced intracellular calcium level preincubated with cells followed by NADA addition by Fluo-4 dye based FLIPR assay.
Settings: not given
(In general: Calcium flux is commonly read through the fluorescence of an indicator in the cells.)
A word on the Ki: it is a measure of affinity in units of concentration, obtained from inhibition or displacement. Take `C[C@H](C(=O)NCc1cc(C(C)(C)C)nn1-c1cccc(Cl)c1)c1ccc(NS(C)(=O)=O)c(F)c1`: the Ki amounted to 0.04 nM.

Another experiment has the same target. As to the kind of experiment: Antagonist activity at elevated temperature activated human TRPV1 expressed in CHO cells assessed as inhibition of intracellular calcium level preincubated for 5 mins followed by receptor activation by increasing temperature to 45 degC by Fluo-4 dye based FLIPR assay. It counts as cell-based.
Settings: not given
For `C[C@H](C(=O)NCc1cc(C(C)(C)C)nn1-c1cccc(Cl)c1)c1ccc(NS(C)(=O)=O)c(F)c1`, the IC50 entry is recorded as “Not Active”.

The next experiment deals with Mus musculus. Description: Inhibition of capsaicin-induced hypothermia in NMRI mouse at 3 mg/kg, po pretreated for 15 mins followed by capsaicin treatment measured up to 120 mins relative to control. The format is functional.
Settings: not given
In general, inhibition in vivo refers to the share of the control response that was lost under treatment. For the compound `C[C@H](C(=O)NCc1cc(C(C)(C)C)nn1-c1cccc(Cl)c1)c1ccc(NS(C)(=O)=O)c(F)c1`, the inhibition in vivo at 3 mg/kg is 95%.
`C[C@H](C(=O)NCc1cc(C(F)(F)F)nn1-c1cccc(Cl)c1)c1ccc(NS(C)(=O)=O)c(F)c1`: the inhibition in vivo at 3 mg/kg turned out to be 85%.

Another experiment has as its target T1, Transient receptor potential cation channel subfamily V member 1. Description: Antagonist activity at human TRPV1 expressed in CHO cells assessed as inhibition of capsaicin-induced intracellular calcium level preincubated for 6 mins followed by capsaicin addition by Fluo-4 dye based FLIPR assay. Conditions: cho. The format is cell-based.
Turning to `COc1ccc(-n2nc(C(C)(C)C)cc2CNC(=O)C(C)c2ccc(NS(C)(=O)=O)c(F)c2)cc1` (stereo not drawn), the Ki entry was “Not Active”.
Still for that read-out and setting: next, `CC(C)(C)c1cc(CNC(=O)C(c2cccc(F)c2)c2ccc(NS(C)(=O)=O)c(F)c2)n(-c2cccc(Cl)c2)n1` (stereo not drawn): “Not Active”.
With `Cc1ccc(C(C(=O)NCc2cc(C(C)(C)C)nn2-c2cccc(Cl)c2)c2ccc(NS(C)(=O)=O)c(F)c2)cc1` (stereo not drawn), the Ki entry is “Not Active”.
Still for that read-out and setting: with `CC(C)(C)c1cc(CNC(=O)C(c2ccc(NS(C)(=O)=O)c(F)c2)C2CCCCC2)n(-c2cccc(Cl)c2)n1` (stereo not drawn) the entry was “Not Active”.
Same read-out and setting: with `CC(C(=O)NCc1cc(C(C)(C)C)nn1C)c1ccc(NS(C)(=O)=O)c(F)c1` (stereo not drawn) the entry was “Not Active”.
The same measure, in the same setting: next, `CC(C(=O)NCc1cc(C(C)(C)C)n[nH]1)c1ccc(NS(C)(=O)=O)c(F)c1` (stereo not drawn): “Not Active”.

The same experiment, now with this note: read-out: Ki.
For `CCCCCCn1nc(C(C)(C)C)cc1CNC(=O)C(C)c1ccc(NS(C)(=O)=O)c(F)c1` (stereo not drawn), the inhibitory constant (Ki) was determined as 27.7 nM.
On to `CC(C(=O)NCc1cc(C(F)(F)F)nn1-c1ccc(Cl)cc1)c1ccc(NS(C)(=O)=O)c(F)c1` (stereo not drawn), for which the Ki worked out at 0.4 nM.
Still for that read-out and setting: next, `CCCCCn1nc(C(C)(C)C)cc1CNC(=O)C(C)c1ccc(NS(C)(=O)=O)c(F)c1` (stereo not drawn): 50.2 nM; `CCC/C=C/n1nc(C(C)(C)C)cc1CNC(=O)C(C)c1ccc(NS(C)(=O)=O)c(F)c1` (stereo not drawn): 5.1 nM.
In the case of `Cc1ccc(/C=C/c2ccc(-n3nc(C(C)(C)C)cc3CNC(=O)C(C)c3ccc(NS(C)(=O)=O)c(F)c3)cc2)cc1` (stereo not drawn), the Ki came to 819 nM.
On to `C[C@H](C(=O)NCc1cc(C(C)(C)C)nn1-c1ccc(F)c(Cl)c1)c1ccc(NS(C)(=O)=O)c(F)c1`, for which the Ki is 0.1 nM.
The same measure, in the same setting: next, `CC(C(=O)NCc1cc(C(C)(C)C)nn1-c1ccccc1)c1ccc(NS(C)(=O)=O)c(F)c1` (stereo not drawn): 8 nM.
